In US20260102383A1, “LPAR1 Inhibitors” (AbbVie Inc., priority 2024, published 2026):

Biological target: T1, human LPAR1 (Homo sapiens, UniProt Q92633)
T1 construct: host or cells: TangoEDG2-bla U2OS cells
Test: Arrestin assay (Arrestin Reporter EDG2-bla U2OS), inhibition of LPA-stimulated signal
Format: cell-based
Conditions: TangoEDG2-bla U2OS cells expressing human LPAR1; 0.25 μM LPA; read-out: Arrestin Reporter EDG2-bla U2OS Human Merged IC50
Method: The inhibitory activity of compounds 15, 62, 77, 84 and 169 against LPAR1 was measured using an Arrestin assay in U2OS cells expressing human LPAR1.
FreeStyle media was warmed in a 37° C. water bath. Cryo-preserved vial(s) of TangoEDG2-bla U2OS cells were rapidly thawed in a 37° C. water bath. The thawed cells were added to FreeStyle media and cells were pelleted at 300×g for 5 minutes. The supernatant was aspirated, and cells were resuspended in FreeStyle media. Cell density was adjusted to 0.25×10^6 cells/mL. Cells (1×10^4 in 40 μL) were added to each well of Greiner 384 well black cell plate(s). Cell plate(s) were placed in a humidified 37° C./5% CO2 incubator for 18-20 hours. Dilutions of test compound were prepared at 6× final concentration; 12-point, 3-fold dilutions using HH Buffer (1×HBSS plus 20 mM HEPES). The 6× test compound was then added to the cell plate(s) at 10 μL/well. The final concentration ranged from 10 μM to 0.00006 μM. Cell plate(s) were incubated in a humidified 37° C./5% CO2 incubator for 1 hour. During the incubation, 6×LPA was prepared at 1.5 μM in 0.1% BSA HH Buffer. After the 1-hour incubation of test compound with cells, the LPA was added to the cell plate(s) at 10 μL/well (final LPA concentration of 0.25 μM). Cell plate(s) were returned to a humidified 37° C./5% CO2 incubator for 3 hours. The Development solution was made up per the LiveBLAzerFRET B/G kit protocol. The Development solution was added to the cell plate(s) at 10 μL/well. Cell plates were incubated in the dark at room temperature for 2 hours. Plate(s) were read on an Envision Plate Reader (Perkin Elmer) to read fluorescence; excitation at 409 nm with emission at 460 nm and 530 nm. Raw Data for analysis is the ratio of emission at 460 nm divided by emission 530 nm. The formula used to determine % Inhibition is as follows (1−(Raw Data−Low Average)/(High Average−Low Average))*100. Percent Inhibition was plotted to determine IC50 value with GraphPad Prism 9.5.0 software using Variable slope 4-parameter curve fit analysis.
Additional compounds of the present disclosure were synthesized in a manner similar to the compounds described above and understood by a person of ordinary skill in the art. The inhibitory activity of the compounds of the present disclosure against LPAR1 was measured using the above-referenced Arrestin Assay protocol.

T1 sequence (Q92633 whole entry): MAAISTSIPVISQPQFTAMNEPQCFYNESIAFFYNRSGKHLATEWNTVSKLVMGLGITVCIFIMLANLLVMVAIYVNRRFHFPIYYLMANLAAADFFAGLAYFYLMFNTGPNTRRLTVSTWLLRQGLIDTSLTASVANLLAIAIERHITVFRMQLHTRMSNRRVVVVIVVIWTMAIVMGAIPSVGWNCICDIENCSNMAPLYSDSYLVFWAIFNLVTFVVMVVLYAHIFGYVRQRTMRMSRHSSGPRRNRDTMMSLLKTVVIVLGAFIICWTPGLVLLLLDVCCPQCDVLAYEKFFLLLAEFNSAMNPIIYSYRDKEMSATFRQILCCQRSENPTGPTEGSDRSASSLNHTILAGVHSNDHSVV

| SMILES | IC50 [nM] |
| --- | --- |
| CC(C)c1ccnn1C1(C(=O)Nc2ccc(Cl)cc2OC(F)F)CCN(CC2(C(=O)O)CCCC2)CC1 [Compound 12, 1-[[4-[[4-chloro-2-(difluoromethoxy)phenyl]carbamoyl]-4-(5-isopropylpyrazol-1-yl)-1-piperidyl]methyl] cyclopentanecarboxylic acid] | 11.4 |
| CC(C)c1ccnn1C1(C(=O)Nc2ccc(Cl)cc2OC(F)F)CCN(C[C@]2(C(=O)O)CCCO2)CC1 [Compound 21, (2S)-2-[[4-[[4-chloro-2-(difluoromethoxy)phenyl]carbamoyl]-4-(5-isopropylpyrazol-1-yl)-1-piperidyl]methyl] tetrabydrofuran-2-carboxylic acid] | 14.6 |
| COc1cccc(C(CN2CCC(C(=O)Nc3ccc(Cl)cc3OC(F)F)(n3nccc3C(C)C)CC2)C(=O)O)c1 (stereo not drawn) [Compound 22, 3-[4-[[4-chloro-2-(difluoromethoxy)phenyl]carbamoyl]-4-(5-isopropylpyrazol-1-yl)-1-piperidyl]-2-(3-methoxyphenyl)propanoic acid] | 10.1 |
| CC(C)c1ccnn1C1(C(=O)Nc2ccc(Cl)cc2OC(F)F)CCN(C[C@@]2(C(=O)O)CCOC2)CC1 [Compound 24, (3S)-3-[[4-[[4-chloro-2-(difluoromethoxy)phenyl]carbamoyl]-4-(5-isopropylpyrazol-1-yl)-1-piperidyl]methyl] tetrabydrofuran-3-carboxylic acid] | 24.7 |
| CC(C)c1ccnn1C1(C(=O)Nc2ccc(Cl)cc2OC(F)F)CCN(C[C@H](C(=O)O)c2cccnc2)CC1 [Compound 25, (2R)-3-[4-[[4-chloro-2-(difluoromethoxy)phenyl]carbamoyl]-4-(5-isopropylpyrazol-1-yl)-1-piperidyl]-2-(3-pyridyl)propanoic acid] | 28 |
| CC(C)c1ccnn1C1(C(=O)Nc2ccc(Cl)cc2OC(F)F)CCN(C[C@@H](C(=O)O)c2cccnc2)CC1 [Compound 26, (2S)-3-[4-[[4-chloro-2-(difluoromethoxy)phenyl]carbamoyl]-4-(5-isopropylpyrazol-1-yl)-1-piperidyl]-2-(3-pyridyl)propanoic acid] | 24.5 |
| CC(C)c1ccnn1C1(C(=O)Nc2ccc(Cl)cc2OC(F)F)CCN(CC2(C(=O)O)CCC(=O)CC2)CC1 [Compound 27, 1-[[4-[[4-chloro-2-(difluoromethoxy)phenyl]carbamoyl]-4-(5-isopropylpyrazol-1-yl)-1-piperidyl]methyl]-4-oxo-cyclohexanecarboxylic acid] | 14.2 |
| COc1ccc([C@H](CN2CCC(C(=O)Nc3ccc(Cl)cc3OC(F)F)(n3nccc3C(C)C)CC2)C(=O)O)cc1 [Compound 28] | 4.82 |
| CC(C)c1ccnn1C1(C(=O)Nc2ccc(Cl)cc2OC(F)F)CCN(CC2(C(=O)O)CCCCO2)CC1 (stereo not drawn) [Compound 30, 2-[[4-[[4-chloro-2-(difluoromethoxy)phenyl]carbamoyl]-4-(5-isopropylpyrazol-1-yl)-1-piperidyl]methyl] tetrahydropyran-2-carboxylic acid] | 12.6 |
| COc1cccc([C@@H](CN2CCC(C(=O)Nc3ccc(Cl)cc3OC(F)F)(n3nccc3C(C)C)CC2)C(=O)O)c1 [Compound 33, (2S)-3-[4-[[4-chloro-2-(difluoromethoxy)phenyl]carbamoyl]-4-(5-isopropylpyrazol-1-yl)-1-piperidyl]-2-(3-methoxyphenyl)propanoic acid] | 5.13 |
| CC(C)c1ccnn1C1(C(=O)Nc2ccc(Cl)cc2OC(F)F)CCN(CC2(C(=O)O)CCC(O)CC2)CC1 (stereo not drawn) [Compound 34, 1-[[4-[[4-chloro-2-(difluoromethoxy)phenyl]carbamoyl]-4-(5-isopropylpyrazol-1-yl)-1-piperidyl]methyl]-4-hydroxy-cyclohexanecarboxylic acid] | 33.3 |
| CC1(C)CCc2cnn(C3(C(=O)Nc4ccc(Cl)cc4OC(F)F)CCN(CC4(C(=O)O)CCOCC4)CC3)c21 [Compound 35, 4-[[4-[[4-chloro-2-(difluoromethoxy)phenyl]carbamoyl]-4-(6,6-dimethyl-4,5-dihydrocyclopenta[c]pyrazol-1-yl)-1-piperidyl]methyl]tetrahydropyran-4-carboxylic acid] | 43.6 |
| CC(C)c1ccnn1C1(C(=O)Nc2ccc(Cl)cc2OC(F)F)CCN(Cc2cccc(C(=O)O)n2)CC1 [Compound 36, 6-[[4-[[4-chloro-2-(difluoromethoxy)phenyl]carbamoyl]-4-(5-isopropylpyrazol-1-yl)-1-piperidyl]methyl]pyridine-2-carboxylic acid] | 55.3 |
| CC(C)c1ccnn1C1(C(=O)Nc2ccc(Cl)cc2OC(F)F)CCN(Cc2nc(C(=O)O)cs2)CC1 [Compound 37, 2-[[4-[[4-chloro-2-(difluoromethoxy)phenyl]carbamoyl]-4-(5-isopropylpyrazol-1-yl)-1-piperidyl]methyl]thiazole-4-carboxylic acid] | 14.6 |
| CC(C)c1ccnn1C1(C(=O)Nc2ccc(Cl)cc2OC(F)F)CCN(CC2(C(=O)O)CC3(COC3)C2)CC1 [Compound 40, 6-[[4-[[4-chloro-2-(difluoromethoxy)phenyl]carbamoyl]-4-(5-isopropylpyrazol-1-yl)-1-piperidyl]methyl]-2-oxaspiro[3.3]heptane-6-carboxylic acid] | 22.5 |
| CCC(=O)N1CCC(CN2CCC(C(=O)Nc3ccc(Cl)cc3OC(F)F)(n3nccc3C(C)C)CC2)(C(=O)O)CC1 [Compound 41, 4-[[4-[[4-chloro-2-(difluoromethoxy)phenyl]carbamoyl]-4-(5-isopropylpyrazol-1-yl)-1-piperidyl]methyl]-1-propanoyl-piperidine-4-carboxylic acid] | 22.8 |

Continued by falling IC50, values first:

| IC50 [nM] | SMILES |
| --- | --- |
| 29.8 | CC(C)c1ccnn1C1(C(=O)Nc2ccc(Cl)cc2OC(F)F)CCN(CC2(C(=O)O)CCOC2)CC1 (stereo not drawn) [Compound 16, 3-[[4-[[4-chloro-2-(difluoromethoxy)phenyl]carbamoyl]-4-(5-isopropylpyrazol-1-yl)-1-piperidyl]methyl] tetrahydrofuran-3-carboxylic acid] |
| 28.8 | CC(C)c1ccnn1C1(C(=O)Nc2ccc(Cl)cc2OC(F)F)CCN(C[C@@]2(C(=O)O)CCCO2)CC1 [Compound 20, (2R)-2-[[4-[[4-chloro-2-(difluoromethoxy)phenyl]carbamoyl]-4-(5-isopropylpyrazol-1-yl)-1-piperidyl]methyl] tetrahydrofuran-2-carboxylic acid] |
| 14.5 | CC(C)c1ccnn1C1(C(=O)Nc2ccc(Cl)cc2OC(F)F)CCN(CC(C(=O)O)c2cccnc2)CC1 (stereo not drawn) [Compound 17, 3-[4-[[4-chloro-2-(difluoromethoxy)phenyl]carbamoyl]-4-(5-isopropylpyrazol-1-yl)-1-piperidyl]-2-(3-pyridyl)propanoic acid] |
| 11.2 | CC(C)c1ccnn1C1(C(=O)Nc2ccc(Cl)cc2OC(F)F)CCN(CC2(C(=O)O)CCCO2)CC1 (stereo not drawn) [Compound 13, 2-[[4-[[4-chloro-2-(difluoromethoxy)phenyl]carbamoyl]-4-(5-isopropylpyrazol-1-yl)-1-piperidyl]methyl] tetrahydrofuran-2-carboxylic acid] |
| 11 | CC(C)c1ccnn1C1(C(=O)Nc2ccc(Cl)cc2OC(F)F)CCN(CC2(C(=O)O)CCN(c3cnccn3)CC2)CC1 [Compound 18, 4-[[4-[[4-chloro-2-(difluoromethoxy)phenyl]carbamoyl]-4-(5-isopropylpyrazol-1-yl)-1-piperidyl]methyl]-1-pyrazin-2-yl-piperidine-4-carboxylic acid] |
| 9.56 | COc1ccc(C(CN2CCC(C(=O)Nc3ccc(Cl)cc3OC(F)F)(n3nccc3C(C)C)CC2)C(=O)O)cc1 (stereo not drawn) [Compound 19, 3-[4-[[4-chloro-2-(difluoromethoxy)phenyl]carbamoyl]-4-(5-isopropylpyrazol-1-yl)-1-piperidyl]-2-(4-methoxyphenyl) propanoic acid] |
| 6.55 | CC(C)c1ccnn1C1(C(=O)Nc2ccc(Cl)cc2OC(F)F)CCN(CC2(C(=O)O)CC3(CCC3)C2)CC1 [Compound 31, 2-[[4-[[4-chloro-2-(difluoromethoxy)phenyl]carbamoyl]-4-(5-isopropylpyrazol-1-yl)-1-piperidyl]methyl]spiro[3.3] heptane-2-carboxylic acid] |
| 4.75 | COc1ccc([C@@H](CN2CCC(C(=O)Nc3ccc(Cl)cc3OC(F)F)(n3nccc3C(C)C)CC2)C(=O)O)cc1 [Compound 29, (2S)-3-[4-[[4-chloro-2-(difluoromethoxy)phenyl]carbamoyl]-4-(5-isopropylpyrazol-1-yl)-1-piperidyl]-2-(4-methoxyphenyl) propanoic acid] |
